Reference: US11254663B2 (BRISTOL-MYERS SQUIBB COMPANY, priority 2019, dated 2022)
pEC50: −log10 of the molar value.

Biological target: FXR (Homo sapiens (Human), UniProt Q96RI1)
Test: transient human FXR/Gal4-luciferase reporter assay
Type: cell-based
Conditions: not given
Procedure: A Gal4-hFXR fusion construct reporter system was used as the primary assay to characterize compound activity. A construct including 5 copies of the Gal4 promoter response element upstream of a firefly luciferase reporter cDNA was stably expressed in HEK293 cells. This reporter cell line was maintained in Dulbecco's Modified Eagle's medium (DMEM; Gibco) supplemented with 1% penicillin-streptomycin (P/S) solution, 500 μg/mL Zeocin and 10% charcoal/dextran-treated fetal bovine serum (cs-FBS) at 37° C. in a humidified 5% CO2 atmosphere. Another plasmid was constructed in which the human cytomegalovirus promoter in the pcDNA3.1 vector directs the expression of the cDNA encoding a fusion protein comprised of the DNA binding domain from the Gal4 transcription factor fused to the ligand binding domain from human FXR.
The day prior to transfection, the reporter cells in culture are detached from the plate with trypsin and plated into a T75 flask at a sufficient density to achieve approximately 90% confluence the next morning. The transfection reagents are prepared by separately diluting 25 μg of the pcDNA3.1-Gal4-FXR plasmid into 1.87 mL of Opti-MEM (Thermo-Fisher), and 40 μL of Lipofectamine 2000 (Thermo-Fisher) into 1.87 mL of Opti-MEM, and then adding the diluted DNA solution into the diluted Lipofectamine 2000 solution and incubating at room temperature for 15-20 minutes. The mixture is further diluted with 10 mL of a solution comprised of DMEM, 10% cs-FBS, and 1% P/S immediately prior to transferring to the cells. The maintenance culture media is aspirated from the cells and the final transfection mixture is added before the cells are incubated overnight at 37° C. in a humidified 5% CO2 atmosphere. This protocol can be scaled up, and the transiently transfected cells can be cryopreserved in an assay-ready format.
For compound testing, 100 nL of the compounds (serial dilutions in DMSO) are dispensed with an Echo acoustic dispenser (Labcyte) into the wells of a Corning/Costar clear bottom 384-well white plate. The transfected cells are harvested, counted, and diluted such that 10-25,000 cells in 25 μL are plated into each well of the 384-well compound assay plate. The compound-treated cells are incubated overnight at 37° C. in a humidified 5% CO2 atmosphere. The next morning 25 μL of Steady-Glo (Promega) are added to each well of the plate, the mixture is incubated for 15 min. with shaking, and luminescence is measured on an Envision (Perkin Elmer) plate reader.

Sequence of FXR (Q96RI1 262-486): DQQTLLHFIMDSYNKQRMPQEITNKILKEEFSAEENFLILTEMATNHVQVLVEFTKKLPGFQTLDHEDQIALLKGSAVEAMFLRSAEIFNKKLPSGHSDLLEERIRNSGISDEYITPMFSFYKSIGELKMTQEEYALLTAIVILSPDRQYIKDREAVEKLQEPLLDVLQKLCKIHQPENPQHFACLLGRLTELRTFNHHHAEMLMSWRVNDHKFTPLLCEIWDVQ

| Compound | pEC50 |
| --- | --- |
| CC(C)(C)c1nc(C23CCC(CN(C(=O)C45CC(F)(C4)C5)c4cc(-c5cnc6nc(C7CC7)sc6c5)ccn4)(CC2)CC3)no1 [Example 535, N-((4-(5-(tert-butyl)-1,2,4-oxadiazol-3-yl)bicyclo[2.2.2]octan-1-yl)methyl)-N-(4-(2-cyclopropylthiazolo[4,5-b]pyridin-6-yl)pyridin-2-yl)-3-fluorobicyclo[1.1.1]pentane-1-carboxamide] | 6.69 |

Same assay, conditions: Gal4-hFXR fusion construct, HEK293 reporter cells; response relative to 8 μM GW-4064

| Compound | pEC50 |
| --- | --- |
| O=C(N(CC12CCC(c3nc(C4CC4)no3)(CC1)CC2)c1cccc(-c2cccn3ncnc23)c1)C12CC(F)(C1)C2 [Example 309, N-(3-([1,2,4]triazolo[1,5-a]pyridin-8-yl)phenyl)-N-((4-(3-cyclopropyl-1,2,4-oxadiazol-5-yl)bicyclo[2.2.2]octan-1-yl)methyl)-3-fluorobicyclo[1.1.1]pentane-1-carboxamide] | 6.66 |
| O=C(N(CC12CCC(c3nc(C4CC4)no3)(CC1)CC2)c1cccc(-c2nc(Cl)nn3cccc23)c1)C12CC(F)(C1)C2 [Example 315, N-(3-(2-chloropyrrolo[2,1-f][1,2,4]triazin-4-yl)phenyl)-N-((4-(3-cyclopropyl-1,2,4-oxadiazol-5-yl)bicyclo[2.2.2]octan-1-yl)methyl)-3-fluorobicyclo[1.1.1]pentane-1-carboxamide] | 6.04 |
| Cc1cnc(-c2cccc(N(CC34CCC(c5nc(C(C)C)no5)(CC3)CC4)C(=O)C34CC(F)(C3)C4)c2)nc1 [Example 393, 3-fluoro-N-((4-(3-isopropyl-1,2,4-oxadiazol-5-yl)bicyclo[2.2.2]octan-1-yl)methyl)-N-(3-(5-methylpyrimidin-2-yl)phenyl)bicyclo[1.1.1]pentane-1-carboxamide] | 7.31 |
| COc1ccc(-c2cccc(N(CC34CCC(c5cc(C6CC6)nn5C)(CC3)CC4)C(=O)C34CC(F)(C3)C4)c2)cc1 [Example 414, N-((4-(3-cyclopropyl-1-methyl-1H-pyrazol-5-yl)bicyclo[2.2.2]octan-1-yl)methyl)-3-fluoro-N-(4′-methoxy-[1,1′-biphenyl]-3-yl)bicyclo[1.1.1]pentane-1-carboxamide] | 7.07 |
| CC1(c2nc(C34CCC(CN(C(=O)C56CC(F)(C5)C6)c5cccc(-c6ccc(NS(=O)(=O)C7CC7)cc6)c5)(CC3)CC4)no2)CC1 [Example 397, N-(4′-(cyclopropanesulfonamido)-[1,1′-biphenyl]-3-yl)-3-fluoro-N-((4-(5-(1-methylcyclopropyl)-1,2,4-oxadiazol-3-yl)bicyclo[2.2.2]octan-1-yl)methyl) bicyclo[1.1.1]pentane-1-carboxamide] | 6.74 |
| COCc1ccc(-c2cccc(N(CC34CCC(c5nc(C6CC6)no5)(CC3)CC4)C(=O)C34CC(F)(C3)C4)c2)cn1 [Example 274, N-((4-(3-cyclopropyl-1,2,4-oxadiazol-5-yl)bicyclo[2.2.2]octan-1-yl)methyl)-3-fluoro-N-(3-(6-(methoxymethyl)pyridin-3-yl)phenyl)bicyclo[1.1.1]pentane-1-carboxamide] | 6.97 |
| O=C(N(CC12CCC(c3nc(C4CC4)no3)(CC1)CC2)c1cccc(-c2ccn3cnnc3c2)c1)C12CC(F)(C1)C2 [Example 307, N-(3-([1,2,4]triazolo[4,3-a]pyridin-7-yl)phenyl)-N-((4-(3-cyclopropyl-1,2,4-oxadiazol-5-yl)bicyclo[2.2.2]octan-1-yl)methyl)-3-fluorobicyclo[1.1.1]pentane-1-carboxamide] | 6.08 |
| Cc1cc(-c2cccc(N(CC34CCC(c5nc(C6CC6)no5)(CC3)CC4)C(=O)C34CC(F)(C3)C4)c2)cn2ncnc12 [Example 266, N-((4-(3-cyclopropyl-1,2,4-oxadiazol-5-yl)bicyclo[2.2.2]octan-1-yl)methyl)-3-fluoro-N-(3-(8-methyl-[1,2,4]triazolo[1,5-a]pyridin-6-yl)phenyl)bicyclo[1.1.1]pentane-1-carboxamide] | 6.16 |
| CCOc1ccc(-c2cccc(N(CC34CCC(c5noc(C(C)C)n5)(CC3)CC4)C(=O)C34CC(F)(C3)C4)c2)cc1 [Example 431, N-(4′-ethoxy-[1,1′-biphenyl]-3-yl)-3-fluoro-N-((4-(5-isopropyl-1,2,4-oxadiazol-3-yl)bicyclo[2.2.2]octan-1-yl)methyl)bicyclo[1.1.1]pentane-1-carboxamide] | 7.60 |
| CC(C)Oc1ccc(-c2cccc(N(CC34CCC(c5cc(C(C)(F)F)nn5C)(CC3)CC4)C(=O)NC(C)(C)C)c2)cc1 [Example 659, 3-(tert-butyl)-1-((4-(3-(1,1-difluoroethyl)-1-methyl-1H-pyrazol-5-yl)bicyclo[2.2.2]octan-1-yl)methyl)-1-(4′-isopropoxy-[1,1′-biphenyl]-3-yl)urea] | 7.28 |
| COc1nccc(-c2cccc(N(CC34CCC(c5nc(C6CC6)no5)(CC3)CC4)C(=O)C3CCC(F)(F)C3)c2)n1 (centres unmarked) [Example 245, N-((4-(3-cyclopropyl-1,2,4-oxadiazol-5-yl)bicyclo[2.2.2]octan-1-yl)methyl)-3,3-difluoro-N-(3-(2-methoxypyrimidin-4-yl)phenyl)cyclopentane-1-carboxamide] | 6.27 |
| O=C1Cc2cc(-c3cccc(N(CC45CCC(c6nc(C7CC7)no6)(CC4)CC5)C(=O)C45CC(F)(C4)C5)c3)ccc2N1 [Example 332, N-((4-(3-cyclopropyl-1,2,4-oxadiazol-5-yl)bicyclo[2.2.2]octan-1-yl)methyl)-3-fluoro-N-(3-(2-oxoindolin-5-yl)phenyl)bicyclo[1.1.1]pentane-1-carboxamide] | 6.80 |
| Cc1nc2c(C)cc(-c3cccc(N(CC45CCC(c6nc(C7CC7)no6)(CC4)CC5)C(=O)C45CC(F)(C4)C5)c3)cn2n1 [Example 265, N-((4-(3-cyclopropyl-1,2,4-oxadiazol-5-yl)bicyclo[2.2.2]octan-1-yl)methyl)-N-(3-(2,8-dimethyl-[1,2,4]triazolo[1,5-a]pyridin-6-yl)phenyl)-3-fluorobicyclo[1.1.1]pentane-1-carboxamide] | 6.29 |
| CC(C)(C#N)OC(=O)N(CC12CCC(c3noc(C(C)(C)F)n3)(CC1)CC2)c1cccc(-c2ccc(C(C)(C)O)cc2)c1 [Example 598, 2-cyanopropan-2-yl ((4-(5-(2-fluoropropan-2-yl)-1,2,4-oxadiazol-3-yl)bicyclo[2.2.2]octan-1-yl)methyl)(4′-(2-hydroxypropan-2-yl)-[1,1′-biphenyl]-3-yl) carbamate] | 7.54 |
| CC(C)Oc1ccc(-c2ccnc(N(CC34CCC(c5noc(C(C)(C)F)n5)(CC3)CC4)C(=O)OC(C)(C)C(F)(F)F)n2)cc1 [Example 636, 1,1,1-trifluoro-2-methylpropan-2-yl ((4-(5-(2-fluoropropan-2-yl)-1,2,4-oxadiazol-3-yl)bicyclo[2.2.2]octan-1-yl)methyl)(4-(4-isopropoxyphenyl)pyrimidin-2-yl)carbamate] | 7.17 |
| CCOc1ncc(-c2cccc(N(CC34CCC(c5ncc(OC)cn5)(CC3)CC4)C(=O)C34CC(F)(C3)C4)c2)cn1 [Example 552, N-(3-(2-ethoxypyrimidin-5-yl)phenyl)-3-fluoro-N-((4-(5-methoxypyrimidin-2-yl)bicyclo[2.2.2]octan-1-yl)methyl)bicyclo[1.1.1]pentane-1-carboxamide] | 6.44 |
| CCOc1ncc(-c2cc(N(CC34CCC(c5noc(C(C)(C)C)n5)(CC3)CC4)C(=O)C34CC(F)(C3)C4)ccn2)cn1 [Example 596, N-((4-(5-(tert-butyl)-1,2,4-oxadiazol-3-yl)bicyclo[2.2.2]octan-1-yl)methyl)-N-(2-(2-ethoxypyrimidin-5-yl)pyridin-4-yl)-3-fluorobicyclo[1.1.1]pentane-1-carboxamide] | 6.49 |
| CC(C)(O)c1ccc(-c2cccc(N(C[C@]34CC[C@](c5noc(C(C)(C)F)n5)(CC3)CC4)C(=O)C3CC(O)(C(F)(F)F)C3)c2)cc1 (stereo partly drawn) [Example 576, (cis)-N-((4-(5-(2-fluoropropan-2-yl)-1,2,4-oxadiazol-3-yl)bicyclo[2.2.2]octan-1-yl)methyl)-3-hydroxy-N-(4′-(2-hydroxypropan-2-yl)-[1,1′-biphenyl]-3-yl)-3-(trifluoromethyl)cyclobutane-1-carboxamide] | 7.72 |
| Cc1nc2cc(-c3cccc(N(CC45CCC(c6nc(C7CC7)no6)(CC4)CC5)C(=O)C45CC(F)(C4)C5)c3)ccc2s1 [Example 303, N-((4-(3-cyclopropyl-1,2,4-oxadiazol-5-yl)bicyclo[2.2.2]octan-1-yl)methyl)-3-fluoro-N-(3-(2-methylbenzo[d]thiazol-5-yl)phenyl)bicyclo[1.1.1]pentane-1-carboxamide] | 6.46 |
